# Data published in the supplement of paper PMC10307832.
# Experiments:
# Assay in all cases: relative viability (nuclei count vs DMSO), 5 days (fraction); higher = more cells survive
# NCI-H1755 = tested on: NCI-H1755
# Summary of the method: (§1)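 Lung cancer cell lines, seeded in 1536-well plates, were treated the following day by pin tool with a single drug or with five library-drug doses (not always all listed) in √10 steps on top of a fixed anchor-drug dose. Cells were fixed and nuclei stained in one step after 5 days, and nuclei were counted. Relative viability is the nuclei count for treated wells divided by that for vehicle wells, reported as medians of duplicate plates.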
# SK-LU-1 = tested on: SK-LU-1
# Summary of the method: as §1
# 201T = tested on: 201T
# Summary of the method: as §1
# LU99A = tested on: LU99A
# Summary of the method: as §1
# EKVX = tested on: EKVX
# Summary of the method: as §1
# COR-L23 = tested on: COR-L23
# Summary of the method: as §1
# LC-2-ad = tested on: LC-2-ad
# Summary of the method: as §1
# NCI-H596 = tested on: NCI-H596
# Summary of the method: as §1
# HCC-366 = tested on: HCC-366
# Summary of the method: as §1
# NCI-H3122 = tested on: NCI-H3122
# Summary of the method: as §1
# BEN = tested on: BEN
# Summary of the method: as §1
# LXF-289 = tested on: LXF-289
# Summary of the method: as §1
# NCI-H1650 = tested on: NCI-H1650
# Summary of the method: as §1
# RERF-LC-KJ = tested on: RERF-LC-KJ
# Summary of the method: as §1
# HCC-78 = tested on: HCC-78
# Summary of the method: as §1
# HCC-15 = tested on: HCC-15
# Summary of the method: as §1
# NCI-H1944 = tested on: NCI-H1944
# Summary of the method: as §1
# NCI-H1734 = tested on: NCI-H1734
# Summary of the method: as §1
# HARA = tested on: HARA
# Summary of the method: as §1
# NCI-H1993 = tested on: NCI-H1993
# Summary of the method: as §1
# HCC-827 = tested on: HCC-827
# Summary of the method: as §1
# NCI-H1975 = tested on: NCI-H1975
# Summary of the method: as §1
# COR-L 105 = tested on: COR-L 105
# Summary of the method: as §1
smiles,measurement,setting,value
Cc1cnc(-c2cnc(NCCNc3ccc(C#N)cn3)nc2-c2ccc(Cl)cc2Cl)[nH]1 + CS(=O)(=O)CCNCc1ccc(-c2ccc3ncnc(Nc4ccc(OCc5cccc(F)c5)c(Cl)c4)c3c2)o1 [Lapatinib] (partner 2 µM),relative viability,NCI-H1755; first compound 0.08 µM,1.04
same,relative viability,NCI-H1755; first compound 0.253 µM,0.785
same,relative viability,NCI-H1755; first compound 0.8 µM,1.06
same,relative viability,NCI-H1755; first compound 2.53 µM,1.07
same,relative viability,SK-LU-1; first compound 0.08 µM,0.87
same,relative viability,SK-LU-1; first compound 0.253 µM,0.96
same,relative viability,SK-LU-1; first compound 0.8 µM,0.999
same,relative viability,SK-LU-1; first compound 2.53 µM,1.11
same,relative viability,201T; first compound 0.08 µM,1.05
same,relative viability,201T; first compound 0.253 µM,0.551
same,relative viability,201T; first compound 0.8 µM,1.01
same,relative viability,201T; first compound 2.53 µM,0.988
same,relative viability,LU99A; first compound 0.08 µM,1.06
same,relative viability,LU99A; first compound 0.253 µM,0.879
same,relative viability,LU99A; first compound 0.8 µM,1.06
same,relative viability,LU99A; first compound 2.53 µM,1.04
same,relative viability,EKVX; first compound 0.08 µM,0.235
same,relative viability,EKVX; first compound 0.253 µM,0.222
same,relative viability,EKVX; first compound 2.53 µM,0.224
same,relative viability,COR-L23; first compound 0.08 µM,0.924
same,relative viability,COR-L23; first compound 0.253 µM,0.856
same,relative viability,COR-L23; first compound 0.8 µM,0.862
same,relative viability,COR-L23; first compound 2.53 µM,0.905
same,relative viability,LC-2-ad; first compound 0.08 µM,1.06
same,relative viability,LC-2-ad; first compound 0.8 µM,0.761
same,relative viability,LC-2-ad; first compound 2.53 µM,0.898
same,relative viability,NCI-H596; first compound 0.08 µM,1.04
same,relative viability,NCI-H596; first compound 0.253 µM,0.994
same,relative viability,NCI-H596; first compound 0.8 µM,1.09
same,relative viability,NCI-H596; first compound 2.53 µM,1.02
same,relative viability,HCC-366; first compound 0.08 µM,0.989
same,relative viability,HCC-366; first compound 0.253 µM,0.951
same,relative viability,HCC-366; first compound 0.8 µM,1.08
same,relative viability,HCC-366; first compound 2.53 µM,0.935
same,relative viability,NCI-H3122; first compound 0.08 µM,0.977
same,relative viability,NCI-H3122; first compound 0.253 µM,0.933
same,relative viability,NCI-H3122; first compound 0.8 µM,0.997
same,relative viability,NCI-H3122; first compound 2.53 µM,1.03
same,relative viability,BEN; first compound 0.08 µM,0.615
same,relative viability,BEN; first compound 0.253 µM,0.686
same,relative viability,BEN; first compound 0.8 µM,0.705
same,relative viability,BEN; first compound 2.53 µM,0.621
same,relative viability,LXF-289; first compound 0.08 µM,0.957
same,relative viability,LXF-289; first compound 0.253 µM,0.806
same,relative viability,LXF-289; first compound 0.8 µM,0.896
same,relative viability,LXF-289; first compound 2.53 µM,1.04
same,relative viability,NCI-H1650; first compound 0.08 µM,0.842
same,relative viability,NCI-H1650; first compound 0.253 µM,0.668
same,relative viability,NCI-H1650; first compound 0.8 µM,0.387
same,relative viability,NCI-H1650; first compound 2.53 µM,0.555
same,relative viability,RERF-LC-KJ; first compound 0.08 µM,0.902
same,relative viability,RERF-LC-KJ; first compound 0.253 µM,0.777
same,relative viability,RERF-LC-KJ; first compound 0.8 µM,0.771
same,relative viability,RERF-LC-KJ; first compound 2.53 µM,0.932
same,relative viability,HCC-78; first compound 0.08 µM,0.449
same,relative viability,HCC-78; first compound 0.253 µM,0.528
same,relative viability,HCC-78; first compound 0.8 µM,1.12
same,relative viability,HCC-78; first compound 2.53 µM,0.546
same,relative viability,HCC-15; first compound 0.08 µM,0.813
same,relative viability,HCC-15; first compound 0.253 µM,0.577
same,relative viability,HCC-15; first compound 0.8 µM,0.903
same,relative viability,HCC-15; first compound 2.53 µM,0.843
same,relative viability,NCI-H1944; first compound 0.08 µM,0.858
same,relative viability,NCI-H1944; first compound 0.8 µM,0.776
same,relative viability,NCI-H1944; first compound 2.53 µM,0.872
same,relative viability,NCI-H1734; first compound 0.08 µM,1.13
same,relative viability,NCI-H1734; first compound 0.253 µM,0.901
same,relative viability,NCI-H1734; first compound 0.8 µM,0.882
same,relative viability,NCI-H1734; first compound 2.53 µM,1.05
same,relative viability,HARA; first compound 0.08 µM,1.03
same,relative viability,HARA; first compound 0.253 µM,0.598
same,relative viability,HARA; first compound 0.8 µM,0.799
same,relative viability,HARA; first compound 2.53 µM,0.607
same,relative viability,NCI-H1993; first compound 0.08 µM,0.957
same,relative viability,NCI-H1993; first compound 0.253 µM,0.756
same,relative viability,NCI-H1993; first compound 0.8 µM,0.823
same,relative viability,NCI-H1993; first compound 2.53 µM,0.937
same,relative viability,HCC-827; first compound 0.08 µM,0.189
same,relative viability,HCC-827; first compound 0.8 µM,0.213
same,relative viability,HCC-827; first compound 2.53 µM,0.179
same,relative viability,NCI-H1975; first compound 0.08 µM,1.01
same,relative viability,NCI-H1975; first compound 0.253 µM,0.9
same,relative viability,NCI-H1975; first compound 0.8 µM,0.694
same,relative viability,NCI-H1975; first compound 2.53 µM,0.558
same,relative viability,COR-L 105; first compound 0.08 µM,0.397
same,relative viability,COR-L 105; first compound 0.253 µM,0.348
same,relative viability,COR-L 105; first compound 0.8 µM,0.318
same,relative viability,COR-L 105; first compound 2.53 µM,0.403
